Reference: patent US20250352525A1, “COMPOSITIONS AND METHODS OF TREATING TRAUMATIC BRAIN INJURY” (United States Government As Represented By The Department …, priority 2024, published 2025)

What was measured:
hsSTING = hsSTING (Homo sapiens, UniProt Q86WV6); settings: covalent small-molecule inhibitor; cited from earlier work
mmSTING = target: T1, mmSTING (Mus musculus, UniProt Q3TBT3); settings: covalent small-molecule inhibitor; cited from earlier work
T1 sequence (Q3TBT3 1-378): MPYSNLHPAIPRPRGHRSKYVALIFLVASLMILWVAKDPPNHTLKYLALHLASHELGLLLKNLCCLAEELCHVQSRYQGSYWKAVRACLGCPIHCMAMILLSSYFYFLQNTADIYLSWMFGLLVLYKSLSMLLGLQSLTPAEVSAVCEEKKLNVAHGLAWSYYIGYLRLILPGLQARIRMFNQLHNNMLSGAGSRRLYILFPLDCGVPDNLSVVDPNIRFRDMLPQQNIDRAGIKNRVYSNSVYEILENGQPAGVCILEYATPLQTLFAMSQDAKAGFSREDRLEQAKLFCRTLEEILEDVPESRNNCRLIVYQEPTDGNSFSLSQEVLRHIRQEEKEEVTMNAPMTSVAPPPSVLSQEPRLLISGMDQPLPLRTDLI

Irf-3 = test: qPCR for Irf-3 in PolyIC-stimulated BV2 cells; assay type: cell-based; settings: dosed 2 hours, then PolyIC 24 hours
Procedure: (§1) Experimental design: BV2 cells were plated in a 6-well plate and allowed to adhere overnight. Plates were dosed with clonixin butyl ketone or H151 for 2 hours and then PolyIC for 24 hours to induce inflammation. qPCR was performed to measure expression of CCL20 and IL-6 inflammatory genes and immunomodulatory Irf-3 gene.

pSTING [1] = test: Immunocytochemistry of pSTING in poly (I:C)-stimulated HT22 hippocampal cells, integrated density (ImageJ); assay type: cell-based, mouse; settings: pre-treated 2 h, then poly (I:C) 6 h, normalized to blank
Procedure: Cells were untreated, or pre-treated with vehicle or STING-inhibitory compounds H151, a ketone analog of clonixin (e.g., clonixin butyl ketone), clonixeril (CXL) for 2 h and then treated with poly (I:C) for 6 h. Cells were then stained with DAPI (blue, top row) to visualize nuclei and pSTING antibody (red, bottom 5 row). Images are presented separately for enhanced clarity. Scale bar 100 μm.
Error bars represent mean ±standard deviation (SD). Separate channels were quantified by ImageJ for pSTING (red) and DAPI (blue) pixel density. A ratio of red signal to blue signal was calculated for each image. Ratios were averaged for each experimental group and normalized to the blank (control) group.

IBA1 [2] = test: Immunocytochemistry of IBA1 in poly (I:C)-stimulated BV2 microglial cells, integrated density (ImageJ); assay type: cell-based; settings: pre-treated 2 h, then poly (I:C) 6 h, normalized to blank
Procedure: (§2) Experimental design: IMG or BV2 cells were plated in a 96-well or 6-well plate and allowed to adhere overnight. Plates were dosed with clonixeril for 2 hours and then LPS or polyinosinic-polycytidylic acid (polyIC) for 24 hours to induce inflammation. Ionized calcium-binding adaptor molecule 1 (IBA1) and pSTING expression were imaged and immunohistochemistry was measured (ImageJ).
Controls used are a blank (untreated); and 25 ng/ml poly (I:C) treatment for 6 h. Immunocytochemistry of BV2 cells pre-treated with a known STING inhibitor H151, clonixeril or a ketone analogue of clonixin (e.g., clonixin butyl ketone) for 2 h and then treated with poly (I:C) for 6 h, stained with IBA1 antibody (red) and DAPI (blue) to visualize nuclei. […] Separate channels were quantified by ImageJ for IBA1 (red) and DAPI (blue) pixel density. A ratio of red signal to blue signal was calculated for each image. Ratios were averaged for each experimental group and normalized to the blank (control) group.

IL-6 = test: qPCR for IL-6 in PolyIC-stimulated BV2 cells; assay type: cell-based; settings: dosed 2 hours, then PolyIC 24 hours
Procedure: as §1

CCL20 = test: qPCR for CCL20 in PolyIC-stimulated BV2 cells; assay type: cell-based; settings: dosed 2 hours, then PolyIC 24 hours
Procedure: as §1

[3] = test system: phosphorylated STING (pSTING); test: Western blot for pSTING in poly (I:C)-stimulated HT22 hippocampal cells; assay type: cell-based, mouse; settings: 100 pM pre-treatment 2 h, then poly (I:C) 6 h
Procedure: Immunoblot analysis of phosphorylated STING (pSTING) and β-actin in HT22 mouse hippocampal cells. Cells were pre-treated with 100 pM ketone analog of clonixin (e.g., clonixin butyl ketone) for 2 h, followed by 6 h stimulation with poly (I:C). Cell lysates were harvested at indicated time points using RIPA buffer supplemented with 1× Halt Protease and Phosphatase Inhibitor Cocktail, quantified via Bradford assay, and normalized to 20 μg protein per well. Lysates were resolved by SDS-PAGE and probed with rabbit polyclonal anti-pSTING and anti-β-actin antibodies.

pSTING [4] = test: Immunocytochemistry of pSTING in LPS-stimulated IMG cells, integrated density (ImageJ); assay type: cell-based; settings: pre-treated 2 h, then LPS 24 h, normalized to blank
Procedure: as §2
(§3) Cells were untreated, or pre-treated with vehicle or STING-inhibitory compound clonixeril for 2 h and then treated with LPS for 24 h. Cells were then stained with DAPI (blue) to visualize nuclei, IBA1 or pSTING antibody (red). Images are presented separately for enhanced clarity. […] Error bars represent mean ±standard deviation (SD). Separate channels were quantified by ImageJ for IBA1 or pSTING (red) and DAPI (blue) pixel density. A ratio of red signal to blue signal was calculated for each image. Ratios were averaged for each experimental group and normalized to the blank (control) group.

IBA1 [5] = test: Immunocytochemistry of IBA1 in LPS-stimulated IMG cells, integrated density (ImageJ); assay type: cell-based; settings: pre-treated 2 h, then LPS 24 h, normalized to blank
Procedure: as §2, §3

Sequence of hsSTING (Q86WV6 whole entry H232R): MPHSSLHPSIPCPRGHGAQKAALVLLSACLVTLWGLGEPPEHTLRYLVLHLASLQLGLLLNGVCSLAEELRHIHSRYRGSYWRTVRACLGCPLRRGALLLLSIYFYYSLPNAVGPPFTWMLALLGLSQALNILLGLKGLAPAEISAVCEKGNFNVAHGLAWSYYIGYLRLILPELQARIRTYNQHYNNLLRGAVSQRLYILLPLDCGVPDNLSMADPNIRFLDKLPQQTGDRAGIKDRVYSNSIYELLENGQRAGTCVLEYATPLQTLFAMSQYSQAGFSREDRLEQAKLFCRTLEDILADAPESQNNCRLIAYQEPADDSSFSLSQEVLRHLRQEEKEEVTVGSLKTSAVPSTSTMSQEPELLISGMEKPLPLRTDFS

Compound	inhibition of hsSTING (hsSTING)	inhibition of mmSTING (mmSTING)	expression of interferon regulatory gene Irf3 (qPCR) (Irf-3)	pSTING (immunocytochemistry, integrated density) (pSTING [1])	IBA1 integrated density (IBA1 [2])	IL-6 expression at 1 picomolar concentration (IL-6; 1 picomolar)	expression of IL-6 (qPCR) (IL-6)	CCL20 expression at 1 picomolar concentration (CCL20)	expression of CCL20 (qPCR) (CCL20)	poly (I:C)-induced STING phosphorylation (Western blot, normalized to β-actin) [3]	pSTING integrated density (pSTING [4])	IBA1 integrated density (IBA1 [5])
CCCCCCc1ccc(NC(=O)c2ccc([N+](=O)[O-])o2)cc1 [C-171, N-(4-hexylphenyl)-5-nitro-2-furancarboxamide]	efficiently inhibits	efficiently inhibits	–	–	–	–	–	–	–	–	–	–
CCCCC(=O)c1cccnc1Nc1cccc(Cl)c1C [clonixin butyl ketone, {2-[(3-chloro-2-methylphenyl)amino]pyridin-3-yl}-1-pentanone]	–	–	reduced significantly	reduction	reduction	significant reduction	significantly decreased	significant reduction	significantly decreased	inhibition	–	–
clonixeril	–	–	–	reduction	reduction	–	–	–	–	–	reduction	reduction
CCc1ccc(NC(=O)Nc2c[nH]c3ccccc23)cc1 [H151]	–	–	reduced significantly	reduction	reduction	–	significantly decreased	but not H151 showed a significant reduction	significantly decreased	–	–	–
